# Laboratory results taken from US7741281B2, “Hepatitis C virus inhibitors” (Bristol-Myers Squibb Company, priority 2005, dated 2010).
# Key:
# [1] = biological target: T1, HCV NS3/4A protease complex, J4L6S strain (Hepatitis C virus genotype 1b, UniProt O92972, C1454S/C1711G); experiment: FRET peptide assay to monitor HCV NS3/4A proteolytic activity (J4L6S strain); assay type: biochemical, HCV genotype 1b
# T1 construct: recombinant HCV NS3/4A protease complex (amino acids 1027 to 1711) for these strains; His tag (inferred from pET21b vector and Ni-NTA purification); made in house; host or cells: Escherichia coli BL21 (DE3), pET21b
# Excerpt: HCV NS3 protease complexes, derived from the BMS strain, H77 strain or J4L6S strain, were generated, as described below. These purified recombinant proteins were generated for use in a homogeneous assay (see below) to provide an indication of how effective compounds of the present disclosure would be in inhibiting HCV NS3 proteolytic activity.
# Serum from an HCV-infected patient was obtained from Dr. T. Wright, San Francisco Hospital. An engineered full-length cDNA (compliment deoxyribonucleic acid) template of the HCV genome (BMS strain) was constructed from DNA fragments obtained by reverse transcription-PCR (RT-PCR) of serum RNA (ribonucleic acid) and using primers selected on the basis of homology between other genotype 1a strains. From the determination of the entire genome sequence, a genotype 1a was assigned to the HCV isolate according to the classification of Simmonds et al. (See P Simmonds, K A Rose, S Graham, S W Chan, F McOmish, B C Dow, E A Follett, P L Yap and H Marsden, J. Clin. Microbiol., 31(6), 1493-1503 (1993)). […]
# [2] = test system: human pancreatic chymotrypsin; experiment: Specificity assay, chymotrypsin (pNA substrate); assay type: biochemical; details: read-out: Chymotrypsin activity in the specificity assays (IC50)
# Method: The specificities of compounds of the present disclosure were determined against a variety of serine proteases: human neutrophil elastase (HNE), porcine pancreatic elastase (PPE) and human pancreatic chymotrypsin and one cysteine protease: human liver cathepsin B. In all cases, a 96-well plate format protocol using colorimetric p-nitroaniline (pNA) substrate or fluorometric Amino-Methyl-Coumarin (AMC) substrate, specific for each enzyme was used as described previously (PCT Patent Application No. WO 00/09543) with some modifications. All enzymes were purchased from Sigma or EMDbiosciences while the substrates were from Bachem.
# Each pNA assay included a 2 h enzyme-inhibitor pre-incubation at room temperature followed by addition of substrate and hydrolysis to ˜15% conversion as measured on a Spectramax Pro microplate reader. The cathepsin B assay was initiated by adding substrate to a 10 min enzyme-inhibitor pre-incubation at room temperature, and the assay plate measured immediately using the Cytofluor Series 4000. Compound concentrations varied from 100 to 0.4 μM depending on their potency.
# The final conditions for each assay were as follows: […]
# The percentage of inhibition was calculated using the formula: [1−((UVinh−UVblank)/(UVctl−UVblank))]×100 […]
# T1 sequence (O92972 1027-1711 C1454S/C1711G, one chain of several): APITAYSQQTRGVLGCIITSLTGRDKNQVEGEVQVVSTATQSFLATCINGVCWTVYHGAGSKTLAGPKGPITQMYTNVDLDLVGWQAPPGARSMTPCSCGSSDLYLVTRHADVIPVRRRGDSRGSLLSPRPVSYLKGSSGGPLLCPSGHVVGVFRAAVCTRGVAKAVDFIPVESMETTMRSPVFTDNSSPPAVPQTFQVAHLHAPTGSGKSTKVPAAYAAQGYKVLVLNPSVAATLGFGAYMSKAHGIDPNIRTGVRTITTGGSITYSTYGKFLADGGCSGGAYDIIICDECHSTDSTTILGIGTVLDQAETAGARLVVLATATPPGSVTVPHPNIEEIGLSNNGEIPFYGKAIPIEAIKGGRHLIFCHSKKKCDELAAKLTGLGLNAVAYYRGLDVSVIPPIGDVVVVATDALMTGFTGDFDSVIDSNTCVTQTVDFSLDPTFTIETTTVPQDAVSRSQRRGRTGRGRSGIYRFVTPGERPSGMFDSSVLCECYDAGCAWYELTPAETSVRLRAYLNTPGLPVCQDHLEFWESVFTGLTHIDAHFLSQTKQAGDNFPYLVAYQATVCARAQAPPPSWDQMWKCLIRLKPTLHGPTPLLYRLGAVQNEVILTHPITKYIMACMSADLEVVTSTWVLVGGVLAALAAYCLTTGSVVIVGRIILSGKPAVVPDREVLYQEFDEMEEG
smiles,measurement,setting,value
COc1c(O[C@@H]2C[C@H]3C(=O)N[C@]4(C(=O)NS(=O)(=O)C5CC5)C[C@H]4/C=C\CCCCC[C@H](NC(=O)OC(C)(C)C)C(=O)N3C2)ccc2c(Cl)nccc12 [Compound 3],IC50,[1],0.47 nM
same,IC50,[2],> 100 µM
